# Laboratory results published in ChEMBL document CHEMBL2413038, “Synthesis and bioevaluation of novel 4-aminoquinoline-tetrazole derivatives as potent antimalarial agents” (Eur J Med Chem, 2013).
# The source made the active and inactive calls. No cut-off for these calls is given here.
# What was measured:
# Plasma = test: Inhibition of beta-hematin formation in Plasmodium yoelii-infected Swiss albino mouse plasma using hemin as substrate after 16 hrs; type: functional, cell-free
# Plasmodium falciparum [1] = test: Resistance index, ratio of IC50 for chloroquine-resistant Plasmodium falciparum K1 to IC50 for chloroquine-sensitive Plasmodium falciparum 3D7; type: functional
# [2] = Selectivity index, ratio of CC50 for African green monkey Vero cells to IC50 for Plasmodium falciparum; type: functional
# Plasmodium falciparum [3] = test: Antimalarial activity against chloroquine-resistant Plasmodium falciparum K1 after 72 hrs by MSF assay; type: functional, organism-based; conditions: K1, 72 h
# Plasmodium falciparum [4] = test: Antimalarial activity against chloroquine-sensitive Plasmodium falciparum 3D7 after 72 hrs by MSF assay; type: functional, organism-based; conditions: 3D7, 72 h
# Plasmodium falciparum [5] = test: Ratio of chloroquine IC50 to compound IC50 for chloroquine-resistant Plasmodium falciparum K1; type: functional
# Plasmodium yoelii [6] = test: Antimalarial activity against chloroquine-resistant Plasmodium yoelii N-67 infected in Swiss mouse assessed as mean survival time at 50 mg/kg, ip qd for 4 days; type: functional; conditions: route intraperitoneal
# Plasmodium yoelii [7] = test: Antimalarial activity against chloroquine-resistant Plasmodium yoelii N-67 infected in Swiss mouse assessed as cured animal at 50 mg/kg, ip qd for 4 days measured on day 28 post infection relative to control; type: functional
# Plasmodium yoelii [8] = test: Antimalarial activity against chloroquine-resistant Plasmodium yoelii N-67 infected in Swiss mouse assessed as mouse survival at 50 mg/kg, ip qd for 4 days measured on day 28 post infection relative to control; type: functional
# Plasmodium yoelii [9] = test: Antimalarial activity against chloroquine-resistant Plasmodium yoelii N-67 infected in Swiss mouse assessed as suppression of parasitaemia level at 50 mg/kg, ip qd for 4 days relative to control; type: functional; conditions: route intraperitoneal
# Plasmodium yoelii [10] = test: Antimalarial activity against chloroquine-resistant Plasmodium yoelii N-67 infected in Swiss mouse assessed as cured animal at 100 mg/kg, po for 4 days measured on day 28 post infection relative to control; type: functional
# Plasmodium yoelii [11] = test: Antimalarial activity against chloroquine-resistant Plasmodium yoelii N-67 infected in Swiss mouse assessed as mean survival time at 100 mg/kg, po qd for 4 days; type: functional
# [12] = Clearance in Sprague-Dawley rat at 10 mg/kg, po; type: ADME, organism-based; design: dose 10 mg/kg, route oral; conditions: in vivo
# Rattus norvegicus [13] = test: Volume of distribution in Sprague-Dawley rat at 10 mg/kg, po; type: ADME, organism-based; design: dose 10 mg/kg, route oral; conditions: in vivo
# [14] = Elimination half life in Sprague-Dawley rat at 10 mg/kg, po; type: ADME, organism-based; design: dose 10 mg/kg, route oral; conditions: in vivo, read-out: beta t1/2 (converted)
# [15] = AUC (0 to t) in Sprague-Dawley rat at 10 mg/kg, po; type: ADME, organism-based; design: dose 10 mg/kg, route oral; conditions: plasma
# [16] = Tmax in Sprague-Dawley rat at 10 mg/kg, po; type: ADME, organism-based; design: dose 10 mg/kg, route oral; conditions: in vivo
# [17] = Cmax in Sprague-Dawley rat at 10 mg/kg, po; type: ADME, organism-based; design: dose 10 mg/kg, route oral; conditions: in vivo
# Plasmodium yoelii [18] = test: Antimalarial activity against chloroquine-resistant Plasmodium yoelii N-67 infected in Swiss mouse assessed as mouse survival at 100 mg/kg, po qd for 4 days measured on day 28 post infection relative to control; type: functional
# Plasmodium yoelii [19] = test: Antimalarial activity against chloroquine-resistant Plasmodium yoelii N-67 infected in Swiss mouse assessed as suppression of parasitaemia level at 100 mg/kg, po qd for 4 days relative to control; type: functional
# Plasmodium yoelii [20] = test: Antimalarial activity against chloroquine-resistant Plasmodium yoelii N-67 infected in Swiss mouse assessed as mouse survival at 10 mg/kg, ip qd for 4 days measured on day 28 post infection; type: functional, organism-based; design: dose 10 mg/kg
# [21] = Clearance in Sprague-Dawley rat at 5 mg/kg, po; type: ADME, organism-based; design: dose 5 mg/kg, route oral; conditions: in vivo
# Rattus norvegicus [22] = test: Volume of distribution in Sprague-Dawley rat at 5 mg/kg, po; type: ADME, organism-based; design: dose 5 mg/kg, route oral; conditions: in vivo
# Rattus norvegicus [23] = test: Elimination half life in Sprague-Dawley rat at 5 mg/kg, po; type: ADME, organism-based; design: dose 5 mg/kg, route oral; conditions: in vivo
# Rattus norvegicus [24] = test: AUC (0 to t) in Sprague-Dawley rat at 5 mg/kg, po; type: ADME, organism-based, Plasma; design: dose 5 mg/kg, route oral; conditions: in vivo
# Rattus norvegicus [25] = test: Tmax in Sprague-Dawley rat at 5 mg/kg, po; type: ADME, organism-based; design: dose 5 mg/kg, route oral; conditions: in vivo
# Plasmodium yoelii [26] = test: Antimalarial activity against chloroquine-resistant Plasmodium yoelii N-67 infected in Swiss mouse assessed as mean survival time at 10 mg/kg, po for 4 days; type: functional
# Plasmodium yoelii [27] = test: Antimalarial activity against chloroquine-resistant Plasmodium yoelii N-67 infected in Swiss mouse assessed as cured animal at 10 mg/kg, po for 4 days measured on day 28 post infection; type: functional, organism-based; design: dose 10 mg/kg
SMILES,IC50 (Plasma) [µg/mL],inhibition (Plasma),Ratio IC50 (Plasmodium falciparum [1]),Ratio CC50/IC50 [2],IC50 (Plasmodium falciparum [3]) [nM],IC50 (Plasmodium falciparum [4]) [nM],MST (Plasmodium yoelii [6]) [days],Activity (Plasmodium yoelii [7]),Activity (Plasmodium yoelii [8]),Activity (Plasmodium yoelii [9]) [%],also measured
CC(C)(C)n1nnnc1C(NCCCNc1ccnc2cc(Cl)ccc12)c1ccc(Cl)cc1 (configuration not stated),5.95,Dose-dependent effect,9.2,248.65,754,81.4,,,,,
CC(C)(C)n1nnnc1C(NCCCNc1ccnc2cc(Cl)ccc12)c1cccc2ccccc12 (configuration not stated),4.45,Dose-dependent effect,0.8,58.67,170,216,,,,,
COc1cc(C(Nc2ccc(Nc3ccnc4cc(Cl)ccc34)cc2)c2nnnn2C(C)(C)C)cc(OC)c1OC (configuration not stated),5.65,Dose-dependent effect,10.5,300.57,573,54.2,,,,,
CC(C)(C)n1nnnc1C(Nc1ccc(Nc2ccnc3cc(Cl)ccc23)cc1)c1cccc2ccccc12 (configuration not stated),5.12,Dose-dependent effect,2.7,3815.38,77.8,28,12,inactive,inactive,57.03,Ratio IC50 (Plasmodium falciparum [5]): 3.38
COc1ccc(C(Nc2ccc(Nc3ccnc4cc(Cl)ccc34)cc2)c2nnnn2C2CCCCC2)cc1OC (configuration not stated),5.19,Dose-dependent effect,0.1,49.73,144,853,,,,,
Clc1ccc2c(Nc3ccc(NC(c4ccc(Br)cc4)c4nnnn4C4CCCCC4)cc3)ccnc2c1 (configuration not stated),4.38,Dose-dependent effect,0.8,1191.58,73.7,92.7,12.6,inactive,inactive,69.56,Ratio IC50 (Plasmodium falciparum [5]): 3.38
CC(C)(C)n1nnnc1C(Nc1ccc(Nc2ccnc3cc(Cl)ccc23)cc1)c1ccccc1 (configuration not stated),5.55,Dose-dependent effect,,2383.47,> 1020,59.6,,,,,
CC(C)(C)n1nnnc1C(NCCNc1ccnc2cc(Cl)ccc12)c1ccc(Cl)cc1 (configuration not stated),6.15,Dose-dependent effect,11.6,839.68,278,23.9,,,,,
Cc1ccc(C(Nc2ccc(Nc3ccnc4cc(Cl)ccc34)cc2)c2nnnn2C(C)(C)C)cc1 (configuration not stated),5.39,Dose-dependent effect,0.07,,75.4,1010,11,inactive,inactive,21.3,Ratio IC50 (Plasmodium falciparum [5]): 3.38
CCc1ccc(C(Nc2ccc(Nc3ccnc4cc(Cl)ccc34)cc2)c2nnnn2C(C)(C)C)cc1 (configuration not stated),5.95,Dose-dependent effect,13.4,3652.19,688,51.4,,,,,
COc1ccc(C(Nc2ccc(Nc3ccnc4cc(Cl)ccc34)cc2)c2nnnn2C(C)(C)C)cc1 (configuration not stated),5.55,Dose-dependent effect,6.6,702.34,384,57.7,,,,,
CC(C)(C)n1nnnc1C(Nc1ccc(Nc2ccnc3cc(Cl)ccc23)cc1)c1ccc(Cl)c(Cl)c1 (configuration not stated),5.4,Dose-dependent effect,12.8,7076.29,142,11,16.83,inactive,inactive,71.49,
CC(C)(C)n1nnnc1C(NCCNc1ccnc2cc(Cl)ccc12)c1cccc2ccccc12 (configuration not stated),6.33,Dose-dependent effect,1.5,305.32,184,120,,,,,
CC(C)(C)n1nnnc1C(Nc1ccc(Nc2ccnc3cc(Cl)ccc23)cc1)c1ccc(Cl)cc1 (configuration not stated),5.29,Dose-dependent effect,13.4,4616.14,143,10.7,23.6,,,99.99,Activity (Plasmodium yoelii [10]): 60%; MST (Plasmodium yoelii [11]): 25.2 days; CL/F [12]: 61.7 mL/min; Vd (Rattus norvegicus [13]): 28.16 L; half-life [14]: 5.27 h; AUC(0-t) [15]: 593 ng·h/mL; Tmax [16]: 2 h; Cmax [17]: 49.2 ng/mL; Activity (Plasmodium yoelii [7]; route intraperitoneal): 60%; Activity (Plasmodium yoelii [18]): 60%; Activity (Plasmodium yoelii [8]; route intraperitoneal): 60%; Activity (Plasmodium yoelii [19]): 99.99%
CC(C)(C)n1nnnc1C(Nc1ccc(Nc2ccnc3cc(Cl)ccc23)cc1)c1ccc(F)cc1 (configuration not stated),5.49,Dose-dependent effect,22.67,3165.31,669,29.5,,,,,
COc1ccc(C(Nc2ccc(Nc3ccnc4cc(Cl)ccc34)cc2)c2nnnn2C(C)(C)C)cc1OC (configuration not stated),5.42,Dose-dependent effect,1,193.28,76.2,70.6,9.8,inactive,inactive,26.91,
CC(C)(C)n1nnnc1C(c1ccc(Cl)cc1)N1CCN(c2ccnc3cc(Cl)ccc23)CC1 (configuration not stated),5.32,Dose-dependent effect,0.2,182.96,159,787,13,inactive,inactive,73.91,
CCN(CC)CCCC(C)Nc1ccnc2cc(Cl)ccc12 (configuration not stated) [CHLOROQUINE],3.95,Dose-dependent effect,,,,,,,,,Activity (Plasmodium yoelii [20]): inactive; CL/F [21]: 2.5 mL/min; Vd (Rattus norvegicus [22]): 1.49 L; beta t1/2 (Rattus norvegicus [23]): 9.5 h; AUCt (Rattus norvegicus [24]): 30.147 ng·h/mL; Tmax (Rattus norvegicus [25]): 0.91 h; MST (Plasmodium yoelii [26]): 16.5 days; Activity (Plasmodium yoelii [27]): inactive
COc1ccc(C(NCCCNc2ccnc3cc(Cl)ccc23)c2nnnn2C(C)(C)C)cc1OC (configuration not stated),5.5,Dose-dependent effect,2.3,1662.92,138,57.9,,,,,
CC(C)(C)n1nnnc1C(Nc1ccc(Nc2ccnc3cc(Cl)ccc23)cc1)c1ccc(Br)cc1 (configuration not stated),5.65,Dose-dependent effect,19.8,2332.43,234,11.8,26,,,99.99,Activity (Plasmodium yoelii [10]): 40%; MST (Plasmodium yoelii [11]): 25.6 days; CL/F [12]: 32.3 mL/min; Vd (Rattus norvegicus [13]): 63.38 L; half-life [14]: 22.6 h; AUC(0-t) [15]: 704 ng·h/mL; Tmax [16]: 1.5 h; Cmax [17]: 44.4 ng/mL; Activity (Plasmodium yoelii [7]; route intraperitoneal): 60%; Activity (Plasmodium yoelii [18]): 60%; Activity (Plasmodium yoelii [8]; route intraperitoneal): 80%; Activity (Plasmodium yoelii [19]): 99.99%
Clc1ccc(C(Nc2ccc(Nc3ccnc4cc(Cl)ccc34)cc2)c2nnnn2C2CCCCC2)cc1 (configuration not stated),3.81,Dose-dependent effect,0.9,694.18,139,156,10.4,inactive,inactive,20.43,
